One block for each compound: values may come before it. Active and inactive are the calls of the source. The calls are words filed in the database; no cut-off is given here.
Columns and labels:
[1] = tested on: Rattus norvegicus; assay: Systolic blood pressure (SBP) in anesthetized spontaneously hypertensive rats (SHR) before administration of 75 mg/kg dose perorally.; assay type: functional; design: unit: mmHg; conditions: route oral
[2] = biological target: T1, Adrenergic receptor beta (Rattus norvegicus, UniProt P18090+P10608+P26255)
Description: Inhibition constant from beta adrenergic receptor binding assay

[3] = tested on: Rattus norvegicus; assay: Systolic blood pressure (SBP) in anesthetized spontaneously hypertensive rats(SHR) at 7.5 hours after administration of 75 mg/kg dose perorally; NS is not statistically significant.
[4] = tested on: Rattus norvegicus; assay: Systolic blood pressure (SBP) in anesthetized spontaneously hypertensive rats(SHR) at 7.5 hours after administration of 75 mg/kg dose perorally; value not statistically significant.; assay type: functional; conditions: route oral
[5] = tested on: Rattus norvegicus; assay: Systolic blood pressure (SBP) in anesthetized spontaneously hypertensive rats(SHR) before administration of 35 mg/kg dose perorally; assay type: functional; design: unit not given here; conditions: route oral
[6] = tested on: Rattus norvegicus; assay: Systolic blood pressure (SBP) in anesthetized spontaneously hypertensive rats(SHR) at 7.5 hours after administration of 35 mg/kg dose perorally; NS is not statistically significant
[7] = tested on: Rattus norvegicus; assay: Systolic blood pressure (SBP) in anesthetized spontaneously hypertensive rats(SHR) before administration of 150 mg/kg dose perorally; assay type: functional; conditions: route oral
[8] = tested on: Rattus norvegicus; assay: Systolic blood pressure (SBP) in anesthetized spontaneously hypertensive rats(SHR) at 7.5 hours after administration of 75 mg/kg dose perorally; assay type: functional; conditions: route oral
[9] = tested on: Rattus norvegicus; assay: Compound was evaluated for % decrease in hypothalamus norepinephrine in anesthetized spontaneously hypertensive rats(SHR) at 24 hours after administration of 35 mg/kg dose perorally; assay type: functional; conditions: route oral
[10] = tested on: Rattus norvegicus; assay: Compound was evaluated for % decrease in adrenal epinephrine in anesthetized spontaneously hypertensive rats(SHR) at 24 hours after administration of 35 mg/kg dose perorally; assay type: functional; conditions: route oral
[11] = tested on: Rattus norvegicus; assay: Compound was evaluated for % decrease in heart norepinephrine in anesthetized spontaneously hypertensive rats(SHR) at 24 hours after administration of 35 mg/kg dose perorally; assay type: functional; conditions: route oral
[12] = tested on: Rattus norvegicus; assay: Systolic blood pressure (SBP) in anesthetized spontaneously hypertensive rats(SHR) at 7.5 hours after administration of 75 mg/kg dose perorally; NS is not statistically significant
[13] = tested on: Rattus norvegicus; assay: Systolic blood pressure (SBP) in anesthetized spontaneously hypertensive rats(SHR) before administration of 30 mg/kg dose intravenously; assay type: functional; conditions: route intravenous
[14] = tested on: Rattus norvegicus; assay: Systolic blood pressure (SBP) in anesthetized spontaneously hypertensive rats(SHR) at 7.5 hours after administration of 30 mg/kg dose intravenously; NS is not statistically significant; assay type: functional, organism-based; design: dose 30 mg/kg
[15] = tested on: Rattus norvegicus; assay: Systolic blood pressure (SBP) in anesthetized spontaneously hypertensive rats(SHR) at 7.5 hours after administration of 35 mg/kg dose perorally; assay type: functional; conditions: route oral
[16] = biological target: T1, Adrenergic receptor beta; assay: Inhibition constant obtained from beta adrenergic receptor binding assay; assay type: protein assay
[17] = tested on: Rattus norvegicus; assay: % decrease in heart 5-HT in anesthetized spontaneously hypertensive rats(SHR) at 5 hours after administration of 150 mg/kg dose perorally; assay type: functional; conditions: route oral
[18] = tested on: Rattus norvegicus; assay: % decrease in heart 5-HT in anesthetized spontaneously hypertensive rats(SHR) at 5 hours after administration of 35 mg/kg dose perorally; assay type: functional; conditions: route oral
[19] = tested on: Rattus norvegicus; assay: % decrease in hypothalamus norepinephrine in anesthetized spontaneously hypertensive rats(SHR) at 5 hours after administration of 75 mg/kg dose perorally; assay type: functional; conditions: route oral
[20] = tested on: Rattus norvegicus; assay: % decrease in hypothalamus DA in anesthetized spontaneously hypertensive rats(SHR) at 5 hours after administration of 150 mg/kg dose perorally; conditions: route oral
[21] = tested on: Rattus norvegicus; assay: % decrease in hypothalamus norepinephrine in anesthetized spontaneously hypertensive rats(SHR) at 5 hours after administration of 35 mg/kg dose perorally; assay type: functional; conditions: route oral
[22] = tested on: Rattus norvegicus; assay: % decrease in heart norepinephrine in anesthetized spontaneously hypertensive rats(SHR) at 5 hours after administration of 75 mg/kg dose perorally; assay type: functional; conditions: route oral
[23] = tested on: Rattus norvegicus; assay: % decrease in hypothalamus dopamine in anesthetized spontaneously hypertensive rats(SHR) at 5 hours after administration of 75 mg/kg dose perorally; assay type: functional; conditions: route oral
[24] = tested on: Rattus norvegicus; assay: % decrease in systolic blood pressure (SBP) in anesthetized spontaneously hypertensive rats(SHR) after administration of 150 mg/kg dose perorally; conditions: route oral
[25] = tested on: Rattus norvegicus; assay: % decrease in heart norepinephrine in anesthetized spontaneously hypertensive rats(SHR) at 5 hours after administration of 35 mg/kg dose perorally; assay type: functional; conditions: route oral
[26] = tested on: Rattus norvegicus; assay: % decrease in hypothalamus norepinephrine in anesthetized spontaneously hypertensive rats(SHR) at 5 hours after administration of 150 mg/kg dose perorally; assay type: functional; conditions: route oral
[27] = tested on: Rattus norvegicus; assay: % decrease in hypothalamus dopamine in anesthetized spontaneously hypertensive rats(SHR) at 5 hours after administration of 35 mg/kg dose perorally; assay type: functional; conditions: route oral
[28] = tested on: Rattus norvegicus; assay: % decrease in heart 5-HT in anesthetized spontaneously hypertensive rats(SHR) at 5 hours after administration of 75 mg/kg dose perorally; *value significantly different was control.; assay type: functional; conditions: route oral
[29] = tested on: Rattus norvegicus; assay: % decrease in heart norepinephrine in anesthetized spontaneously hypertensive rats(SHR) at 5 hours after administration of 150 mg/kg dose perorally; assay type: functional; conditions: route oral

- Ki [2]: 0.0075 µM
Compound: CC(C)NCC(O)COc1cccc2c(=O)cc(-c3ccccc3)oc12 (stereo not drawn)
- Systolic blood pressure [1]: 209

Compound: Cc1ccc(-c2cc(=O)c3ccc(OCC(O)CNC(C)C)cc3o2)cc1 (stereo not drawn)
- Systolic blood pressure [1]: 196
- Decrease in Systolic blood pressure [3]: Not significant

Compound: CC(C)NCC(O)COc1ccc2c(=O)cc(-c3ccc([N+](=O)[O-])cc3)oc2c1 (stereo not drawn)
- Systolic blood pressure [1]: 202
- Decrease in Systolic blood pressure [3]: Not significant

Compound: COc1ccc(-c2cc(=O)c3ccc(OCC(O)CNC(C)C)cc3o2)cc1 (stereo not drawn)
- Systolic blood pressure [1]: 198
- Decrease in Systolic blood pressure [4]: 10%

Compound: CNCC(O)COc1ccc2c(=O)cc(-c3ccccc3)oc2c1 (stereo not drawn)
- Systolic blood pressure [5]: 190
- Decrease in Systolic blood pressure [6]: Not significant

- Ki [2]: 18 µM
Compound: CC(C)(C)NCC(O)COc1ccc2c(=O)cc(-c3ccccc3)oc2c1 (stereo not drawn)
- Systolic blood pressure [7]: 201

Compound: CC(C)NCC(O)COc1cc(O)c2c(=O)cc(-c3ccccc3)oc2c1 (stereo not drawn)
- Systolic blood pressure [1]: 195
- Decrease in Systolic blood pressure [8]: 15%

Compound: CCCNCC(O)COc1ccc2c(=O)c(-c3ccccc3)c(-c3ccccc3)oc2c1 (stereo not drawn)
- Decrease [9]: 12%
- Decrease [10]: 10%
- Decrease [11]: 100%

- Ki [2]: 23 µM
Compound: Cc1cc(=O)c2ccc(OCC(O)CNC(C)C)cc2o1 (stereo not drawn)
- Systolic blood pressure [1]: 196
- Decrease in Systolic blood pressure [3]: inactive

Compound: CC(C)NCC(O)COc1cccc2ccccc12 (stereo not drawn) [PROPRANOLOL]
- Systolic blood pressure [1]: 212
- Decrease in Systolic blood pressure [12]: inactive

Compound: CCCNCC(O)COc1cccc2oc(-c3ccccc3)cc(=O)c12 (stereo not drawn)
- Systolic blood pressure [13]: 157
- Decrease in Systolic blood pressure [14]: Not significant

Compound: CC(C)NCC(O)COc1ccc2c(=O)cc(-c3ccccc3Cl)oc2c1 (stereo not drawn)
- Decrease in Systolic blood pressure [15]: 18%
- Systolic blood pressure [5]: 192

Compound: CC(C)NCC(O)COc1ccc2c(=O)cc(-c3cccc(Cl)c3)oc2c1 (stereo not drawn)
- Systolic blood pressure [1]: 200
- Decrease in Systolic blood pressure [3]: Not significant

- Ki [16]: 5.5 µM
Compound: O=c1cc(-c2ccccc2)oc2cc(OCC(O)CNC3CCCCC3)ccc12 (stereo not drawn)
- Decrease in Systolic blood pressure [15]: 20%
- Systolic blood pressure [5]: 201

Compound: CC(C)NCC(O)COc1ccc2c(=O)cc(-c3ccc(Cl)cc3)oc2c1 (stereo not drawn)
- Decrease in Systolic blood pressure [15]: 19%
- Systolic blood pressure [5]: 192

Compound: COc1c(-c2ccccc2)oc2cc(OCC(O)CNC(C)C)ccc2c1=O (stereo not drawn)
- Decrease [17]: 37%
- Decrease [18]: 7%
- Decrease [19]: 16%
- % decrease hypothalamus DA [20]: 37%
- Decrease [21]: 12%
- Decrease [22]: 61%
- Decrease [23]: 26%
- % decrease SBP [24]: 16%
- Decrease [25]: 55%
- Decrease [26]: 28%
- Decrease in Systolic blood pressure [12]: Not significant
- Decrease [27]: 29%
- Decrease [28]: 29%
- Decrease [29]: 70%

Compound: O=c1cc(-c2ccccc2)oc2cc(OCC(O)CNCCO)ccc12 (stereo not drawn)
- Systolic blood pressure [1]: 189
- Decrease in Systolic blood pressure [3]: Not significant

Compound: CC(C)NCCCOc1ccc2c(=O)cc(-c3ccccc3)oc2c1
- Systolic blood pressure [1]: 204
- Decrease in Systolic blood pressure [12]: Not significant

Compound: O=c1cc(-c2ccccc2)oc2cc(OCC(O)CN3CCN(c4ccccc4)CC3)ccc12 (stereo not drawn)
- Systolic blood pressure [1]: 217
- Decrease in Systolic blood pressure [3]: Not significant
